Assay results: the supplement of paper PMC10307832

How the values were obtained:
Assay in all cases: relative viability (nuclei count vs DMSO), 5 days (fraction); higher = more cells survive
[1] = compound: CCN(CCO)CCCC(C)Nc1ccnc2cc(Cl)ccc12 [Hydroxychloroquine] + CC(=O)c1c(C)c2cnc(Nc3ccc(N4CCNCC4)cn3)nc2n(C2CCCC2)c1=O [Palbociclib] (partner 0.5 µM)
Procedure, shortened: (§1)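 Relative viability equals treated-well nuclei counts divided by vehicle-well nuclei counts. Counts came from 4× images of lung cancer cell lines grown in 1536-well plates for 5 days after pin-tool dosing on the day after seeding. Dosing used one drug alone or a fixed anchor-drug dose plus five library-drug doses (not always all listed) in √10 steps, and values are medians of duplicate plates.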

[2] = compound: CCN(CCO)CCCC(C)Nc1ccnc2cc(Cl)ccc12 [Hydroxychloroquine] + CS(=O)(=O)N1CCN(Cc2cc3nc(-c4cccc5[nH]ncc45)nc(N4CCOCC4)c3s2)CC1 [Pictilisib] (partner 1 µM)
Procedure, shortened: as §1

[3] = compound: CCN(CCO)CCCC(C)Nc1ccnc2cc(Cl)ccc12 [Hydroxychloroquine] + N=C(N)NC(=N)NCCc1ccccc1 [Phenformin] (partner 250 µM)
Procedure, shortened: as §1

[4] = compound: CCN(CCO)CCCC(C)Nc1ccnc2cc(Cl)ccc12 [Hydroxychloroquine] + Nc1ncn([C@H]2C[C@H](O)[C@@H](CO)O2)c(=O)n1 [Decitabine] (partner 2 µM)
Procedure, shortened: as §1

Cell Line | relative viability ([1]; first compound 0.5 µM) | relative viability ([1]; first compound 1.581 µM) | relative viability ([1]; first compound 5 µM) | relative viability ([1]; first compound 15.81 µM) | relative viability ([1]; first compound 50 µM) | relative viability ([2]; first compound 0.5 µM) | relative viability ([2]; first compound 1.581 µM) | relative viability ([2]; first compound 5 µM) | relative viability ([2]; first compound 15.81 µM) | relative viability ([2]; first compound 50 µM) | relative viability ([3]; first compound 0.5 µM) | relative viability ([3]; first compound 1.581 µM) | relative viability ([3]; first compound 5 µM) | relative viability ([3]; first compound 15.81 µM) | relative viability ([3]; first compound 50 µM) | relative viability ([4]; first compound 0.5 µM) | relative viability ([4]; first compound 1.581 µM) | relative viability ([4]; first compound 5 µM) | relative viability ([4]; first compound 15.81 µM) | relative viability ([4]; first compound 50 µM)
NCI-H2087 | 0.189 | 0.227 | 0.231 | 0.189 | 0.213 | 0.891 | 0.879 | 0.798 | 0.919 | 0.721 | 0.445 | 0.383 | 0.486 | 0.566 | 0.464 | 0.265 | 0.258 | 0.242 | 0.219 | 0.294
NCI-H2228 | 0.322 | 0.871 | 0.857 | 0.706 | 0.873 | 0.403 | 0.375 | 0.339 | 0.412 | 0.398 | 0.265 | 0.342 | 0.348 | 0.407 | 0.292 |  |  |  |  | 
NCI-H838 | 0.237 | 0.197 | 0.242 | 0.194 | 0.22 | 0.509 | 0.465 | 0.398 | 0.465 | 0.53 | 0.636 | 0.561 | 0.548 | 0.595 | 0.613 | 0.472 | 0.458 | 0.437 | 0.429 | 0.452
NCI-H661 | 0.404 | 0.364 | 0.413 | 0.377 | 0.403 | 0.472 | 0.413 | 0.406 | 0.384 | 0.358 | 0.275 | 0.259 | 0.3 | 0.243 | 0.254 | 0.584 | 0.587 | 0.564 | 0.528 | 0.567
NCI-H596 |  |  |  |  |  | 0.386 | 0.406 | 0.32 | 0.367 | 0.399 | 0.69 | 0.66 | 0.784 | 0.835 | 0.908 | 0.954 | 1.02 | 1.12 | 0.966 | 0.993
EBC-1 |  |  |  |  |  | 0.367 | 0.307 | 0.374 | 0.354 | 0.295 |  |  |  |  |  |  |  |  |  | 
NCI-H727 | 0.643 | 0.552 | 0.561 | 0.661 | 0.688 | 0.389 | 0.339 | 0.444 | 0.325 | 0.371 | 0.514 | 0.424 | 0.407 | 0.618 | 0.532 | 1.02 | 0.93 | 0.839 | 0.829 | 0.693
NCI-H1299 |  |  |  |  |  | 0.805 | 0.682 | 0.867 | 0.845 | 0.746 |  |  |  |  |  |  |  |  |  | 
LK-2 | 0.884 | 0.832 | 0.762 | 0.809 | 0.697 | 0.607 |  | 0.58 | 0.62 | 0.558 | 0.37 | 0.314 |  | 0.33 | 0.574 | 0.308 | 0.297 | 0.36 | 0.268 | 0.284
NCI-H1993 | 0.6 | 0.575 | 0.692 | 0.662 | 0.693 | 0.824 | 0.961 | 0.625 | 0.81 | 0.789 | 0.514 | 0.55 | 0.475 | 0.51 | 0.476 | 0.664 | 0.635 | 0.705 | 0.688 | 0.606
